Source: patent US10202340B2, “Glucosylceramide synthase inhibitors and therapeutic methods using the same” (THE REGENTS OF THE UNIVERSITY OF MICHIGAN, priority 2015, dated 2019)
Counter-ions that a name gives are not always drawn. Like-named read-outs stand apart in the source and are kept apart here. Blank lines part the entries; values can stand above or below the compound they belong to.

Tests used:
[1] = target: glucosylceramide synthase (GCS) (Canis lupus familiaris, UniProt A0A8I3MXG6); experiment: GCS activity, broken cell assay (inhibition of GlcCer synthesis in broken wild-type MDCK cell preparations); assay type: biochemical, canine; conditions: mean of n > 2 experiments
Chain of glucosylceramide synthase (GCS) (A0A8I3MXG6 1-394): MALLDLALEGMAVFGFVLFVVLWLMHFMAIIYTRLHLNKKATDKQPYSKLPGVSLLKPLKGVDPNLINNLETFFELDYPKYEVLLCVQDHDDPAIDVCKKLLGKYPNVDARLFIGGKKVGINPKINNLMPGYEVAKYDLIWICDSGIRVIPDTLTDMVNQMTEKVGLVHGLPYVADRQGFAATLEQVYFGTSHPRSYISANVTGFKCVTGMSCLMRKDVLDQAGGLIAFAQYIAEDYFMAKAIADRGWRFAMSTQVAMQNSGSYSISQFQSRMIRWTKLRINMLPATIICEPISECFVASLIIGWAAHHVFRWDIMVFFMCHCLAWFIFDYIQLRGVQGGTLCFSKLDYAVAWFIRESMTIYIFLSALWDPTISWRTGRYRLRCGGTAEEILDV
Method: Enzyme activity was measured as described previously (9). Madin-Darby canine kidney (MDCK) cell homogenates (120 μg of protein) were incubated with uridine diphosphate-[^3H]glucose (100,000 cpm) and liposomes consisting of 85 μg of octanoylsphingosine, 570 μg of dioleoylphosphatidylcholine, and 100 μg of sodium sulfatide in a 200 μL reaction mixture and kept for 1 h at 37° C.

GCS in WT-MDCKII cells = GCS in WT-MDCKII cells (Canis lupus familiaris, UniProt A0A8I3MXG6); experiment: Inhibition of GlcCer production in whole wild-type MDCKII cells; assay type: cell-based, canine; conditions: 24 hours, read-out: WT-MDCK IC50
Chain of GCS in WT-MDCKII cells (A0A8I3MXG6 1-394): as above
Method: (§1) Parental (WT-)MDCKII cells and MDCKII cells retrovirally transduced with human MDR-1 cDNA were obtained from the Netherlands Cancer Institute. Both cell lines were routinely maintained in medium consisting of Opti-MEM/F12 (1:1), 5% FBS, 100 U/mL of penicillin, 100 μg/mL streptomycin and […] L-glutamine. MDCKII cells were newly thawed from frozen ampules every two months.
(§2) Stock solutions of water-insoluble glycosphingolipid inhibitors (100 mM) were prepared by dissolving each inhibitor into 100% ethanol as previously described (3). The inhibitor-ethanol solutions then were diluted 50× into 2 mM delipidated bovine serum albumin-phosphate buffered saline solution to make water-soluble glycosphingolipid inhibitor-bovine serum albumin complexes. The inhibitor-bovine serum album complexes were sterile-filtered and stored at −20° C. Prior to use, portions of the inhibitor-bovine serum albumin complexes were further diluted with Opti-F12 to make treatment solutions. Equal amounts of bovine serum albumin and ethanol were added into the control cultures. WT and MDR1-MDCKII cells (5×10^5) were seeded into 10-cm culture dishes containing 10 ml of Opti-F12 with 5% FBS.
(§3) Following inhibitor treatment, whole cellular lipids of wild type and MDR1-MDCKII cells were extracted as previously described in detail (10). Briefly, cells were washed with ice-cold phosphate buffered saline, fixed by methanol, and collected with rubber scraper. Chloroform was then added to yield a theoretical ratio of chloroform:methanol:water at 1:2:0.8 (v/v/v) to form a mono-phase. Cell debris and proteins were removed by centrifugation at 2200×g for 30 min. The supernatants were portioned by adding chloroform and 0.9% NaCl. The lower organic phases containing neutral glycosphingolipids lipids were washed with methanol and 0.9% NaCl, and subjected to base- and acid-hydrolysis (10). A portion of purified glycosphingolipids normalized to 100 nmol of total phospholipids was analyzed by high performance thin layer chromatography. The thin layer chromatography separations were processed twice. The plate pretreated with 1% sodium borate was first developed in a solvent system consisting of chloroform/methanol (98/2, v/v). After air drying, the plate was then developed in a solvent system containing chloroform/methanol/water (70/30/4, v/v/v). The levels of glucosylceramide were detected by charring with 8% cupric sulfate in 8% phosphoric acid, and quantified by densitometric scanning using ImageJ, NIH Image.

GCS in MDR1-MDCKII cells = GCS in MDR1-MDCKII cells (Canis lupus familiaris, UniProt A0A8I3MXG6); conditions: read-out: MDR1-MDCKII IC50; MDCKII cells stably expressing human MDR1, 24 hours
Chain of GCS in MDR1-MDCKII cells (A0A8I3MXG6 1-394): as above
Method: as §1, §2, §3

[2] = Mouse liver microsome stability; assay type: in vitro ADME; conditions: mouse liver microsomes; read-out: Mouse liver microsome t1/2
Method: Selected compounds were incubated with mouse liver microsomes to assess their stability to oxidative metabolism by cytochrome P450 enzymes (Table 1).

[3] = Brain and plasma drug levels after single oral dose in CD-1 mice; assay type: in vivo, mouse
[4] = tested on: brain glucosylceramide (GlcCer); experiment: Brain glucosylceramide (GlcCer) content in WT mice; assay type: in vivo, mouse; conditions: for reduction of brain GlcCer levels / reduction in brain GlcCer levels: WT mice
Method: Lipid extractions of liver, kidney, and brain were performed as previously described (7). Briefly, frozen liver (about 0.5 g), two kidneys (about 0.3 g) and whole brain (about 0.4 g) were individually homogenized in sucrose buffer (250 mM sucrose, pH 7.4, 10 mM HEPES and 1 mM EDTA), at 0.2 g tissue/1 mL of sucrose buffer, with a Tri-R homogenizer. Each 0.8 mL of homogenate was mixed with 2 mL of methanol and 1 mL of chloroform, bath sonicated for 1 min and incubated at room temperature for 1 h. Tissue debris were removed by centrifugation at 2,400× gravity for 30 min. The pellets were re-extracted by mixing with 1 mL of methanol, 0.5 mL of chloroform and 0.4 mL of 0.9% NaCl (chloroform/methanol/0.9% NaCl, 1:2:0.8), incubated at room temperature for 1 h and centrifuged at 2,400× gravity for another 30 min. Two extracts were combined and mixed with 4.5 mL of chloroform and 1.2 mL of 0.9% NaCl (chloroform/methanol/0.9% NaCl, 2:1:0.8). After centrifugation at 800× gravity for 5 min, lower layer was washed with 3 mL of methanol and 2.4 mL of 0.9% NaCl. Second washing was carried with 3 mL of methanol, 2 mL of water and 0.4 mL of 0.9% NaCl followed by a 5 min centrifugation at 800× gravity. The resultant lower phase was collected and dried under a stream of N2 gas.
The analysis of neutral glycosphingolipids from mouse liver, kidney, and brain was processed after alkaline methanolysis. […] lipids were incubated with 2 mL of chloroform and 1 ml of 0.21N NaOH in methanol for 2 h (kidney) or 7.5 h (liver and brain) at RT. The lipid extract was normalized to 0.5 μmol of total phospholipid phosphate (liver and kidney) or 2 μmol of total phospholipid phosphate (brain) for high performance thin layer chromatography analysis. After alkaline methanolysis, the brain lipids were passed through a silica gel column (7). Borate-impregnated thin layer chromatography plates were developed in a two solvent system. Plates were first developed in chloroform/methanol (98:2, v/v). The plates loaded with kidney and liver lipids were then developed in chloroform/methanol/water (64:24:4, v/v/v), and brain lipids were further separated in chloroform/methanol/water (60:30:6, v/v/v). GlcCer levels were quantified by comparison to known standards.
In another test, a dose ranging study for brain glucosylceramide (GlcCer) content was performed using the compound of Example 7. FIG. 1 contains bar graphs showing the GluCer levels in treated and untreated WT mouse brain at low doses for 3 days (FIG. 1A) and high doses for 3 days (FIG. 1B). […] FIG. 1C compares the GlcCer levels in treated and untreated WT mouse brain for 7 days comparing oral gavage vs. IP injection. […] FIG. 2 contains comparative brain GlcCer level data obtained with the Control Compound, dosed at 10 mg/kg IP (FIG. 2A) or 60 mg/kg IP (FIG. 2B) in WT mice for 3 days.

[5] = mouse, brain, single 20 mg/kg PO, female CD-1 mice, read-out: Drug level in brain
[6] = mouse, plasma, single 20 mg/kg PO, female CD-1 mice, read-out: Drug level in plasma
[7] = mouse, plasma, single 20 mg/kg PO, female CD-1 mice, 7 hrs, read-out: Drug level in plasma

IC50 (GCS in WT-MDCKII cells): 50 nM
Compound: O=C(CC1Cc2ccccc2C1)N[C@H](CN1CCCC1)[C@H](O)c1cccc(OC(F)(F)F)c1 [Example 14, 2-(2,3-dihydro-1H-inden-2-yl)-N-((1R,2R)-1-hydroxy-3-(pyrrolidin-1-yl)-1-(3-(trifluoromethoxy)phenyl)propan-2-yl)acetamide]

half-life [2]: 4 min
Compound: COc1cccc([C@@H](O)[C@@H](CN2CCCC2)NC(=O)CC2Cc3ccccc3C2)c1 [Example 3, 2-(2,3-dihydro-1H-inden-2-yl)-N-((1R,2R)-1-hydroxy-1-(3-methoxyphenyl)-3-(pyrrolidin-1-yl)propan-2-yl)acetamide]

concentration at 1 h [3, 5]: 193 ng/g
concentration at 7 h ([3]; mouse, brain, single 20 mg/kg PO, female CD-1 mice, 7 hrs, read-out: Drug level in brain): 68 ng/g
concentration at 1 h [3, 6]: 463 ng/g
concentration at 7 h [3, 7]: 52 ng/g
half-life [2]: 37 min
Compound: O=C(CC1Cc2ccccc2C1)N[C@H](CN1CCCC1)[C@H](O)c1ccc(OC(F)(F)F)cc1 [Example 7, 2-(2,3-dihydro-1H-inden-2-yl)-N-((1R,2R)-1-hydroxy-3-(pyrrolidin-1-yl)-1-(4-(trifluoromethoxy)phenyl)propan-2-yl)acetamide]
reduction in brain GlcCer levels ([4]; 1 mg/kg IP, 3 days): Near maximal reduction
reduction of brain GlcCer levels ([4]; 1 mg/kg IP, 3 days): 35%
reduction in brain GlcCer levels ([4]; oral dosing at 10 mg/kg, 7 days): significant reductions

half-life [2]: 5.5 min
Compound: COc1ccc([C@@H](O)[C@@H](CN2CCCC2)NC(=O)CC2Cc3ccccc3C2)cc1 [Example 2, 2-(2,3-dihydro-1H-inden-2-yl)-N-((1R,2R)-1-hydroxy-1-(4-methoxyphenyl)-3-(pyrrolidin-1-yl)propan-2-yl)acetamide]

half-life [2]: 2.7 min
Compound: COc1ccc([C@@H](O)[C@@H](CN2CCCC2)NC(=O)CC2Cc3ccccc3C2)cc1F [Example 1, 2-(2,3-dihydro-1H-inden-2-yl)-N-((1R,2R)-1-(3-fluoro-4-methoxyphenyl)-1-hydroxy-3-(pyrrolidin-1-yl)propan-2-yl)acetamide]

More lines, now with the values behind:

Compound: COc1ccccc1[C@@H](O)[C@@H](CN1CCCC1)NC(=O)CC1Cc2ccccc2C1 [Example 4, 2-(2,3-dihydro-1H-inden-2-yl)-N-((1R,2R)-1-hydroxy-1-(2-methoxyphenyl)-3-(pyrrolidin-1-yl)propan-2-yl)acetamide]
IC50 [1]: 44 nM
IC50 (GCS in WT-MDCKII cells): 5 nM
IC50 (GCS in MDR1-MDCKII cells): 56 nM

Compound: O=C(CC1Cc2ccccc2C1)N[C@H](CN1CCC1)[C@H](O)c1ccc(OC(F)(F)F)cc1 [Example 17, N-((1R,2R)-3-(azetidin-1-yl)-1-hydroxy-1-(4-(trifluoromethoxy)phenyl)propan-2-yl)-2-(2,3-dihydro-1H-inden-2-yl)acetamide]
half-life [2]: > 60 min

Compound: O=C(CC1Cc2ccccc2C1)N[C@H](CN1CCCC1)[C@H](O)c1ccc2c(c1)OCCO2 [control]
Kp at 1 h ([3]; female, mouse, brain/plasma, 20 mg/kg, single oral dose, CD-1 mice, at one hour, read-out: brain/plasma ratio): 0.25
concentration at 1 h [3, 5]: 5 ng/g
concentration at 1 h [3, 6]: 20 ng/g
concentration at 7 h [3, 7]: 9 ng/g
Drug level in brain ([3]; single 20 mg/kg PO, female CD-1 mice, 7 hrs): BLQ*
reduction of brain GlcCer levels ([4]; 60 mg/kg IP, 3 days): 17%
IC50 (GCS in WT-MDCKII cells): 15 nM
IC50 (GCS in MDR1-MDCKII cells): 24 nM
half-life [2]: 1.5 min

Compound: O=C(CC1Cc2ccccc2C1)N[C@H](CN1CCCC1)[C@H](O)c1ccc(OCC2CC2)cc1 [Example 11, N-((1R,2R)-1-(4-(cyclopropylmethoxy)phenyl)-1-hydroxy-3-(pyrrolidin-1-yl)propan-2-yl)-2-(2,3-dihydro-1H-inden-2-yl)acetamide]
IC50 [1]: 46 nM
IC50 (GCS in WT-MDCKII cells): 1 nM
IC50 (GCS in MDR1-MDCKII cells): 0.84 nM

Compound: O=C(CC1Cc2ccccc2C1)N[C@H](CN1CCCC1)[C@H](O)c1ccc(OCC(F)(F)F)cc1 [Example 12, 2-(2,3-dihydro-1H-inden-2-yl)-N-((1R,2R)-1-hydroxy-3-(pyrrolidin-1-yl)-1-(4-(2,2,2-trifluoroethoxy)phenyl)propan-2-yl)acetamide]
half-life [2]: 11 min

Compound: CCCCCCCC(=O)N[C@H](CN1CCCC1)[C@H](O)c1ccc2c(c1)OCCO2 [eliglustat tartrate, N-((1R,2R)-1-(2,3-dihydrobenzo-[b][1,4]dioxin-6-yl)-1-hydroxy-3-(pyrrolidin-1-yl)propan-2-yl)octanamide, reference compound]
decrease in brain glucosylceramide content ([4]; mice, intraperitoneal administration for 3 days): not seen

Compound: O=C(CC1Cc2ccccc2C1)N[C@H](CN1CC[C@@H](F)C1)[C@H](O)c1ccc(OC(F)(F)F)cc1 [Example 16, 2-(2,3-dihydro-1H-inden-2-yl)-N-((1R,2R)-3-((R)-3-fluoropyrrolidin-1-yl)-1-hydroxy-1-(4-(trifluoromethoxy)phenyl)propan-2-yl)acetamide]
IC50 [1]: > 300 nM
IC50 (GCS in WT-MDCKII cells): 23 nM
IC50 (GCS in MDR1-MDCKII cells): 47 nM
